Laboratory results reported in patent US9702824B2, “pH sensors” (PROMEGA CORPORATION, priority 2012, dated 2017).
Read-outs that look alike come from different tables or passages of the source.

Columns and labels:
[1] = system: U2-OS cells stably expressing HaloTag-NLS
[2] = system: HaloTag-EDG1 fusion protein in U2-OS cells; experiment: Blocking internalization by DYNASORE, detected with pH sensor; assay type: cell-based; conditions: 80 uM, 1 uM S1P for 60 minutes, detected with 1 uM PBI-4479
Method: In addition to dynamin, DYNASORE, a reversible, non-competitive inhibitor of dynamin, can also be used to block internalization/endocytosis with the blocking detected and monitored using the pH sensor of the present invention. […] After the overnight incubation, the cells were simultaneously labeled for 30 minutes with 1 uM HaloTag pH sensor (PBI-4479) and 80 uM Dynasore (Sigma). Control cells were labeled with the 1 uM HaloTag pH sensor, but were not treated with Dynasore. The cells were then stimulated with 1 uM S1P for 60 minutes and imaged as previously described.

[3] = system: HaloTag-EDG1 fusion protein in U2-OS cells; experiment: Restoration of internalization by DYNASORE washout; assay type: cell-based; conditions: 80 uM removed by washing, then 1 uM S1P for 60 minutes
Method: In such experiments, blocked internalization of HaloTag-EDG1 was restored. […] After the overnight incubation, the cells were simultaneously labeled with a HaloTag pH sensor (PBI-4479) and 80 uM DYNASORE (Sigma). Control cells were labeled with the HaloTag pH sensor, but were not treated with DYNASORE. The cells were then stimulated with 1 uM S1P and imaged (T=0 in FIG. 17). At this point, DYNASORE prevents the dynamin-dependent internalization/endocytosis of HaloTag-EDG1. DYNASORE was then removed by washing three times for 5 minutes with McCoy's 5A+10% FBS, and the media replaced with complete media containing 1 uM S1P. The cells were incubated for 60 minutes and imaged as previously described. Internalization of HaloTag-EDG1 was restored as detected and monitored by the pH sensor (SEE FIG. 19).

[4] = Ex/Em printed with the synthesis procedures; assay type: physicochemical
[5] = Fluorescence excitation and emission spectra of pH sensor agents; assay type: physicochemical
Method: (§1) Experiments were conducted during development of embodiments of the present invention to determine the fluorescence characteristics of exemplary pH sensor agents PBI-4453 and PBI-4479 (SEE FIG. 1). Fluorescence excitation and emission intensities were measured at a range of wavelengths (SEE FIG. 2). […] Fluorescence detection was performed at a range of pH values (SEE FIG. 3).

[6] = pH dependence of fluorescence emission; assay type: physicochemical
Method: as §1

U2OS cells = experiment: Toxicity, CELLTITER-GLO Luminescent Cell Viability Assay (Example 3); assay type: cell-based; conditions: 0 nM to 20 uM, 24 hour
Method: The toxicity of dyes PBI-4479 and PBI-4453 was tested in U2OS cells. The cells were plated at 20,000 cells/well in McCoy's 5A media+10% FBS into wells of a 96-well plate. The compounds were then serially diluted 2-fold in McCoy's 5A+10% FBS to a 10× working solution. 10 ul of the working solution was added to the cells to a final concentration of 0 nM to 20 uM. The treated cells were then incubated overnight at 37° C., 5% CO2. Toxicity was tested using Promega's CELLTITER-GLO Luminescent Cell Viability Assay according to the manufacturer's protocol. No toxicity was seen across varying concentrations of the compounds over the 24 hour period (SEE FIG. 9).

[7] = system: U2-OS cells stably expressing HaloTag-NLS; experiment: pH sensor permeability, pulse and chase with HaloTag Oregon Green (Example 12); conditions: 2 uM pulse for 10 minutes
wild-type U2-OS cells = experiment: Toxicity of HaloTag pH sensors, CELLTITER Glo Cell Viability Assay (Example 9); assay type: cell-based; conditions: 0-10 uM, overnight
Method: U2-OS cells were plated at 10,000 cells/well into wells of 96-well plates and incubated overnight. The next day, 0-10 uM (serially diluted 1:2) PBI-4959, PBI-5004 or PBI-4479 was added to the cells and again incubated overnight. After incubation, the media containing the HaloTag® pH sensors was removed, and 100 ul of fresh media (McCoy's 5A+10% FBS) was added. Cell viability was determined using the CELLTITER Glo Cell Viability Assay according to the manufacturer's protocol (Promega Corporation). Luminescence was read on a GloMAX®-Multi luminometer.

U2-OS HaloTag-EDG1 cells [8] = target: T1, U2-OS HaloTag-EDG1 cells (Homo sapiens, UniProt P21453); experiment: Detection of internalization using an impermeable pH sensor (Example 13); assay type: cell-based; conditions: 500 nM sensor
T1 construct: host or cells: U2-OS HaloTag-EDG1 cells
Method: The next day, the media was replaced with McCoy's 5A+0.5% cFBS and incubated overnight at 37° C./5% CO2. […] 1 uM S1P (Sphingosine-1-Phosphate) or carrier (DMSO) was then added to the cells, and images were acquired sequentially on Olympus FV500 at 37° C./5% CO2.

U2-OS HaloTag-EDG1 cells [9] = target: T1, U2-OS HaloTag-EDG1 cells; experiment: Detection of internalization using a permeable pH sensor (Example 13); assay type: cell-based; conditions: 500 nM sensor added after stimulation with or without 1 uM S1P
Method: To evaluate internalization using a permeable pH Sensor, U2-OS HaloTag®-EDG1 cells (Promega Corporation) were exposed to PBI-5004 and internalization of HaloTag®-EDG1 assessed. […] The next day, the media was replaced with McCoy's 5A+0.5% cFBS and incubated overnight at 37° C./5% CO2. After incubation, 1 uM S1P (Sphingosine-1-Phosphate) was added, and the cells incubated for 30 minutes at 37° C./5% CO2.

T1 sequence (P21453 with tags, fused parts or gaps): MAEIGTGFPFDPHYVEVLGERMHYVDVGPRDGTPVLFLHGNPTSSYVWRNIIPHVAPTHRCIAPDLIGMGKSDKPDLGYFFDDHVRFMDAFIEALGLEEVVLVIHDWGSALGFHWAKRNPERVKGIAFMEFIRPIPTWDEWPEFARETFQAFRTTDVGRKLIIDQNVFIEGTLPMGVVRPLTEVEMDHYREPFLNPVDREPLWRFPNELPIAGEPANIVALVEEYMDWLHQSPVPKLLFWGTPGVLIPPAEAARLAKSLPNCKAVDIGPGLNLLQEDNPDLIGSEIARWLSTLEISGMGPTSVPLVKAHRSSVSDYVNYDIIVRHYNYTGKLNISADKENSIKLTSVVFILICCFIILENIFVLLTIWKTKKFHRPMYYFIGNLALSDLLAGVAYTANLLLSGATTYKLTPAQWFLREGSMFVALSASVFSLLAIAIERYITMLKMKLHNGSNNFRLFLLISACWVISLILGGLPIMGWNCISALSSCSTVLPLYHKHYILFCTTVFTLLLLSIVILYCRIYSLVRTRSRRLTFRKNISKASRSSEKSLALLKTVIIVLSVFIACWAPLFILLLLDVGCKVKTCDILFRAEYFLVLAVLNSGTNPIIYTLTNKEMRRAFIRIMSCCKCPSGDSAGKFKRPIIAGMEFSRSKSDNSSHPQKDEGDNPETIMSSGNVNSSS

## 4-((1-(4-((2-(2-((6-chlorohexyl)oxy)ethoxy)ethyl)carbamoyl)phenyl)-3-oxo-6,9,12,15-tetraoxa-2-azaheptadecan-17-yl)) 3′,6′-bis(4-(4-sulfobutyl)piperazin-1-yl) rhodamine(5′,6′)carboxamide [PBI-4995]
[1]
  cell permeability: non-permeability

## O=C(N/N=C/c1ccc(O)c(O)c1)c1cc2ccccc2cc1O [DYNASORE]
[2]
  effect on HaloTag-EDG1 internalization: prevented dynamin-dependent internalization/endocytosis
[3]
  HaloTag-EDG1 internalization after washout: restored

## CN1CCN(c2ccc3c(c2)Oc2c4c5c(cc2=C3c2cc(C(=O)O)ccc2C(=O)[O-])CCC[N+]=5CCC4)CC1 [Hexahydroquinoiizino-(4-methylpiperazin-1-yl}-rhodamine-6′-carboxyic acid]
[4]
  Em: 586 nm
  Ex: 559 nm

## CN1CCN(c2ccc3c(-c4cc(C(=O)NCCOCCOCCOCCOCCOCCOCCCCCCCl)ccc4C(=O)[O-])c4ccc(=[N+]5CCN(C)CC5)cc-4oc3c2)CC1 [PBI-4453, N-(24-chloro-3,6,9,12,15,18-hexaoxatetracosyl)-3′,6′-bis(4-methylpiperazin-1-yl)-rhodamine-(5,6)carboxamide]
[5]
  emission maximum: 571 nm
  excitation maximum: 541 nm
[6]
  pH at or below which maximal fluorescence intensity is exhibited: ≤ 4.15
[6]; at pH 7.53 or higher
  percent of maximal fluorescence: ≤ 5%
[6]; from pH dependence of fluorescence
  pKa: ~5.84
U2OS cells
  toxicity (cell viability): No toxicity

## O=C(NCCOCCOCCCCCCCl)c1cccc(CNC(=O)c2ccc(C(=O)[O-])c(-c3c4ccc(=[N+]5CCN(CCCCS(=O)(=O)O)CC5)cc-4oc4cc(N5CCN(CCCCS(=O)(=O)O)CC5)ccc34)c2)c1 [PBI-4958]
[7]
  cell permeability: non-permeability

## O=C(NCCOCCOCCCCCCCl)c1ccc(CNC(=O)c2ccc(C(=O)[O-])c(-c3c4ccc(=[N+]5CCN(CCCCS(=O)(=O)O)CC5)cc-4oc4cc(N5CCN(CCCCS(=O)(=O)O)CC5)ccc34)c2)cc1 [PBI-4959, 4-((4-((2-(2-((6-chlorohexyl)oxy)ethoxy)ethyl)carbamoyl)benzyl))-3′,6′-bis(4-(4-sulfobutyl)piperazin-1-yl) rhodamine(5′,6′) carboxamide]
wild-type U2-OS cells
  toxicity (cell viability): non-toxicity
U2-OS HaloTag-EDG1 cells [8]; with 1 uM S1P
  detection of HaloTag-EDG1 internalization: ability to detect internalization of HaloTag-EDG1
U2-OS HaloTag-EDG1 cells [8]; without 1 uM S1P
  detection of background HaloTag-EDG1 internalization: ability to detect background internalization of HaloTag-EDG1
[4]
  Em: 564 nm
  Ex: 532 nm
[7]
  cell permeability: non-permeability

## O=C(CCOCCOCCOCCOCCNC(=O)c1ccc(C(=O)[O-])c(-c2c3ccc(=[N+]4CCN(CCCCS(=O)(=O)O)CC4)cc-3oc3cc(N4CCN(CCCCS(=O)(=O)O)CC4)ccc23)c1)NCc1cccc(C(=O)NCCOCCOCCCCCCCl)c1 [PBI-4994]
[7]
  cell permeability: non-permeability

## O=C(NCC1CCC(C(=O)NCCOCCOCCCCCCCl)CC1)c1ccc(C(=O)[O-])c(-c2c3ccc(=[N+]4CCN(CCCCS(=O)(=O)O)CC4)cc-3oc3cc(N4CCN(CCCCS(=O)(=O)O)CC4)ccc23)c1 (centres unmarked) [PBI-5004, 4-(((4-((2-(2-((6-chlorohexyl)oxy)ethoxy)ethyl)carbamoyl)cyclohexyl)methyl)) 3′,6′-bis(4-(4-sulfobutyl)piperazin-1-yl) rhodamine(5′,6′) carboxamide]
wild-type U2-OS cells
  toxicity (cell viability): non-toxicity
U2-OS HaloTag-EDG1 cells [9]
  detection of HaloTag-EDG1 internalization: ability to detect internalization of HaloTag-EDG1
[4]
  Em: 560 nm
  Ex: 532 nm
